In paper PMC9894920, “Development of an improved and specific inhibitor of NADPH oxidase 2 to treat traumatic brain injury” (Redox Biology, 2023):
Read-outs that look alike come from different tables or passages of the source.

Assays:
[1] = biological target: T1, NOX4 (Homo sapiens, UniProt Q9NPH5); test: Expi293 whole cell assay, NOX4 overexpression; type: cell-based; conditions: doses 100x higher than GSK2795039
T1 construct: expressed in transfected cells; host or cells: Expi293 (human embryonic kidney) cells, transient transfection, 48 hours
T1 sequence (Q9NPH5 1-578): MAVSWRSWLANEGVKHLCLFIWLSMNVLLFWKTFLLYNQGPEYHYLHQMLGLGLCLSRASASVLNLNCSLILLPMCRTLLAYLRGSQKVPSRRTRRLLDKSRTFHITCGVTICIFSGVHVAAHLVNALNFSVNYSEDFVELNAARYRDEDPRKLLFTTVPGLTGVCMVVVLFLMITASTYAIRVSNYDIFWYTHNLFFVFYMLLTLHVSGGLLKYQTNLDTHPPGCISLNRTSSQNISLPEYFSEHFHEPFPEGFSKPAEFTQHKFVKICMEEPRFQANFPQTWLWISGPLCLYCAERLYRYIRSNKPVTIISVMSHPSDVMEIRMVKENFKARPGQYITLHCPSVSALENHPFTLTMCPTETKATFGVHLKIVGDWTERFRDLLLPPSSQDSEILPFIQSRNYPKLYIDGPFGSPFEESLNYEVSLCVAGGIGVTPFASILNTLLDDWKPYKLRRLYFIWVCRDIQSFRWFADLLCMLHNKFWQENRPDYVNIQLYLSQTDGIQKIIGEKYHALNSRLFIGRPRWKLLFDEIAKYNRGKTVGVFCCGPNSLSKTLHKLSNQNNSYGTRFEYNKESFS
T1 sequence (P13498 2-195 partner limits assumed): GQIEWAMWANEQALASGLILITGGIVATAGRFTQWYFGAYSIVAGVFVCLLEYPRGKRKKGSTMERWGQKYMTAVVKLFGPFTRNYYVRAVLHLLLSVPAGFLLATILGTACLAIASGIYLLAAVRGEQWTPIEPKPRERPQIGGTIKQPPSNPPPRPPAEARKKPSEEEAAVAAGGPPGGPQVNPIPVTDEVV
Protocol: Given concerns about previous assays for specific NOX family members we here report the first use of the Expi293 Expression System (Thermo Scientific) to overexpress NOX1, 2, 3, 4, and 5 in excess of any endogenous NOX proteins present in these cells. Transfections were performed following the manufacturer's instructions using the plasmids for each NOX as described in Supplemental Table 2 except that the enhancer solution provided with the Expi293 system was not used because it promoted enzyme activation.
After the times indicated in Supplemental Table 2, cells were washed and 50,000 added per well of a white 96-well plate (Greiner) along with 50 μM Luminol and 2.5 U horseradish peroxidase/mL in a volume of 90 μl for NOX1, NOX2, and NOX5. Inhibitors or vehicle controls were added and cells were incubated for 20 min at 37 °C prior to activation with the indicated stimuli. For NOX3 and NOX4 (constitutively active), cells were incubated with inhibitor or vehicle control prior to the addition of luminol and HRP. Chemiluminescence was measured every 2 min for 1 s per well at 37 °C in a Varioscan Multimode reader. AUC data were analyzed using GraphPad Prism using non-linear regression analysis after expressing relative to control alone (maximum ROS production).

[2] = biological target: T2, NOX2 (Homo sapiens, UniProt P04839); test: NOX2 activity in primary human granulocytes (PMN), luminol chemiluminescence; type: cell-based; set-up: When tested against NOX2 in primary human neutrophils; endogenous in cells; host or cells: primary human granulocytes (PMN) from donor blood
T2 sequence (P04839 2-570 limits assumed): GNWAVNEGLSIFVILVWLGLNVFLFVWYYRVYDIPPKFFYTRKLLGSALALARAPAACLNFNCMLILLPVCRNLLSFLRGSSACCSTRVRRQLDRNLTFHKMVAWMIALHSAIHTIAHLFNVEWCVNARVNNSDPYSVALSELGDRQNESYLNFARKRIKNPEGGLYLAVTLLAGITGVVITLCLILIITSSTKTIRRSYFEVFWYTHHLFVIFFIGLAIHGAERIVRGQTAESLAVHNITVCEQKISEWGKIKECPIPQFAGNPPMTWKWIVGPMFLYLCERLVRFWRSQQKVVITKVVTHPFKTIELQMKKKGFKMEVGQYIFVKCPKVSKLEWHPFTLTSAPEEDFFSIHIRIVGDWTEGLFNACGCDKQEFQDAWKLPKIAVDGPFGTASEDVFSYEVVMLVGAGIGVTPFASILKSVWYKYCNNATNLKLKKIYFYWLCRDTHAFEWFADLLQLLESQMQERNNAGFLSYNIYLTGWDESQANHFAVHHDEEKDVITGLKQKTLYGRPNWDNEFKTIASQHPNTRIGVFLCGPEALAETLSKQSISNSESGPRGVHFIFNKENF
T2 sequence (P13498 2-195 partner limits assumed): T1 sequence (P13498 2-195 partner limits assumed)
Protocol: Human blood was obtained after informed consent by the Department of Transfusion Medicine (NIH Clinical Center) and provided as de-identified specimens. Human granulocytes were isolated using Percoll density fractionation as described and NOX2 activity was assessed in white polypropylene flat bottom 96 well plates following 15 min of preincubation at 37 °C with compounds or vehicle controls using 50 μM luminol as a chemiluminescence enhancer in an assay volume of 100 μl RPMI1640 with 1.1 × 10^5 cells/well in Varioskan Lux luminometer for 30 cycles of 1 s per well (approximately 1 h).

[3] = Parallel artificial membrane permeability assay (PAMPA); type: in vitro ADME; conditions: pH 7.4, PAMPA, pH7.4, read-out: Permeability(pH7.4) (PAMPA_Pion_Lipid 1e-6 cm/s)
Protocol: The rat liver microsomal stability, parallel artificial membrane permeability assay (PAMPA), and aqueous kinetic solubility assay in phosphate-buffered saline (PBS) buffer were performed as described in the indicated references.

[4] = test system: NOX1 reconstituted with p47phox and p67phox; test: NOX1 reconstituted with cytosolic phox proteins (p47phox and p67phox), data not shown; type: cell-based
From the text: (§1) Another experiment (data not shown) examined the potency of NCATS-SM7270 against NOX1 and NOX3 reconstituted with cytosolic phox proteins (p47phox and p67phox).

[5] = test system: NOX3 reconstituted with p47phox and p67phox; test: NOX3 reconstituted with cytosolic phox proteins (p47phox and p67phox), data not shown; type: cell-based
From the text: as §1

Q: For `Cn1ccc(S(=O)(=O)Nc2ccnc3c2c(-c2ccc4ccn(C)c4c2)cn3C2CC2)n1` [NCATS-SM7270, N-(1-cyclopropyl-3-(1-methyl-1H-indol-6-yl)-1H-pyrrolo [2,3-b]pyridin-4-yl)-1-methyl-1H-pyrazole-3-sulfonamide], which “activity against NOX4” value [1] is on record?
A: no detectable activity

Q: And the IC50 ([2]; mean of 6 donors ± S.D., read-out: IC50 against NOX2 in primary human neutrophils)?
A: 4.09 ± 1 µM

Q: What about the IC50 ([2]; mean ± SD, n in cell, read-out: NOX-2 IC50 from PMN) of the same compound?
A: 2.15 µM

Q: What about the Papp [3] of the same compound?
A: 999 ×10⁻⁶ cm/s

Q: What about the “dose needed to observe inhibition of NOX1 versus NOX2” value [4] of the same compound?
A: ~10 fold

Q: What about the “dose needed to observe inhibition of NOX3 versus NOX2” value [5] of the same compound?
A: ~10 fold
